Experiments:
[1] = tested on: rheumatoid arthritis-derived synovial cells (mesenchymal cells); details: cited from earlier work
synovial MSCs [2] = assay: Proliferation assay of synovial MSCs with recombinant protein (MTT assay); assay type: cell-based, human; details: rh Activin A at ED50x10 and ED50x100 in 10% FBS and 0.5% FBS medium, days 0-7; FIGS. 5C and D
Experimental: Primary human synovial cells were isolated from the synovial tissues obtained from patients who underwent total knee arthroplasty (TKA), as described in Sekiya I. et al, Clin Orthop Relat Res, 2015, 473(7), pp. 2316 to 2326. That is, first, 0.5 to 1 mg of synovium obtained by incising the suprapatellar bursa was subjected to collagenase D treatment (Sigma, MO, USA, 3 hours at 37° C.) to disperse nucleated cells. Debris was removed by passing the cell dispersion through a 70 μm nylon mesh. Nucleated cells were seeded in a 15 cm dish at 5.7×10^2 cells/cm^2 and maintained and cultured in MEM-alpha medium supplemented with 10% FBS and antibiotics (Gibco, MA, USA) for 14 days. The cells were then separated from the dish in TripLE solution (Gibco) and seeded twice more in a new dish to obtain a sufficient cell count to be used in the experiments. Note that in all experiments, cells within 6 passages were used.
To evaluate the pro-proliferative activity of recombinant proteins (IL6, IL8, IL10, and Activin A), MTT assays were performed (see FIGS. 3C and 5C-E). Synovial MSCs were seeded to 1×10^3 cells/well in 96-well plates and cultured in 0.2 mL of normal growth medium 1 day before being subjected to recombinant protein treatment. On the following day, the medium was replaced with a fresh one (normal growth medium or medium with a reduced FBS concentration of 0.5% and recombinant protein added (10 times the concentration of ED50 or 100 times the concentration of ED50)). MTT assays were performed at days 0, 1, 3, 5, and 7 according to the method described in Denizot F. et al., J Immunol Methods, 1986, 89(2), pp. 271 to 277.
In addition, the present inventors tried to clarify the molecular mechanism of MSC proliferative activity by Activin A. It has been reported that the ERK and PI3K signal transduction pathways are activated for MSC proliferation (see Uomizu, M. et al, J Med Dent Sci., 2018, vol. 65, pp. 73 to 82). With the above in mind, Activin A (rh Activin A) was applied to synovial MSCs in the presence of PI3K-PKB/Akt and Erk1/Erk2, a specific inhibitor for each of these signal transduction pathways, and the cell count was measured by MTT assay.

[3] = tested on: rat model of total articular cartilage loss; assay: Full thickness articular cartilage defect model; assay type: in vivo; details: 4 weeks after the defect, FIG. 8
Experimental: Next, in order to verify the regeneration of damaged articular cartilage and the suppression of degenerative degeneration, a model of full thickness articular cartilage defect was prepared to examine the effects of rh Activin A administration. Specifically, a 1.4 mmφ total articular cartilage loss was prepared in the femoral intercondylar region using an airtome, and 180 ng of Activin A (rh Activin A) was injected intra-articularly 1 week later.

Akt = assay: Western blotting, phosphorylation of Akt in synovial MSCs; assay type: cell-based, human; details: FIG. 5F
Experimental: (§1) Synovial MSCs were seeded in 6 cm dishes to reach a cell count of 2×10^5, and cultured in normal growth medium for 1 day. The medium was replaced with fresh medium with reduced amount of FBS (MEM-alpha, 0.5% FBS and antibiotics) and cultured for one more day. The cells were treated with rh Activin A and/or PDGF-AA (amount 3 times the ED50) for up to 30 minutes. Then, those cells were lysed with cell lysis buffer (#9803S; Cell Signaling Technology, MA) to prepare total cell lysate.
(§2) Western blotting was performed as described in Uomizu, M. et al, J Med Dent Sci. vol. 65, pp. 73 to 82. The antibodies used were purchased from Cell Signaling Technology (phospho-p44/42 (#4370), p44/42 (#9102), phospho-Akt (#9271), and Akt (#9272)).

synovial MSCs [4] = assay: In-vitro differentiation assay of MSCs (cartilage, bone, adipocytes); assay type: cell-based, human
Experimental: In-vitro differentiation assays were performed according to the method described in Colter D C. et al, Proc Natl Acad Sci USA, 2001, 98, pp. 7841 to 7845.
To form chondrogenic spheroids, 2.5×10^5 cells were transferred into 15 mL polypropylene tubes (BD Biosciences) and subjected to centrifugation at 450×g for 10 minutes. Then, the cell pellets were cultured in chondrogenic medium containing 1000 ng/mL rhBMP-2 (Infuse Bone Graft; Medtronic, TN, USA), 10 ng/mL […], and 100 nM dexamethasone (Sigma-Aldrich, MO, USA) for 14 days.
For calcification, cells were cultured in normal growth medium supplemented with 1 nM dexamethasone, 20 mM β-glycerophosphate, and 50 μg/mL ascorbic acid-2-phosphate (Sigma-Aldrich) for 21 days. Calcified nodule formation was visualized by alizarin red staining (Sigma-Aldrich).
For adipogenesis, the cells were cultured for 21 days in MEM-alpha supplemented with 10% FBS, 100 nM dexamethasone (Sigma-Aldrich), 0.5 mM IBMX (isobutyl-1-methylxanthine; Sigma-Aldrich), and 50 μM indomethacin (Wako, Tokyo, Japan). The adipogenic cultures were immobilized and stained with Oil Red O solution (Sigma-Aldrich).

p44/42 MAPK (Erk1/2) = assay: Western blotting, phosphorylation of p44/42 MAPK (Erk1/2) in synovial MSCs; assay type: cell-based, human; details: FIG. 5F
Experimental: as §1, §2

[5] = Activin A alone, MSCs serum-starved 24 hours, within 30 minutes
[6] = Activin A together with PDGF-AA

Activin A: homodimer of two inhibin βA chains; recombinant human protein purchased from R&D Systems
proliferation of rheumatoid arthritis-derived synovial cells [1]: promotes the proliferation | proliferation of MSCs (MTT assay) (synovial MSCs [2]): significantly activated | degenerative degeneration of articular cartilage around the defect site ([3]; 180 ng intra-articular, safranin O): significantly suppressed | chondrogenic differentiation of the formed tissue [3]: no significant promotion effect | formation of fibrocartilage-like tissue in the articular cartilage defect site ([3]; intra-articular 1 week after defect (rh Activin A 180 ng/knee, rrPDGF-AA 900 ng/knee), vs PBS): promote the formation of fibrocartilage-like tissue | phosphorylation of Akt (Akt; [5]): not detected | phosphorylation of Akt by PDGF (Akt; [6]): enhanced | production of cartilage matrix (synovial MSCs [4]; added to chondrogenic differentiation medium, pellet culture 2 weeks, FIG. 6C): no significant promotive effect | differentiation induction toward chondrocytic, osteoblastic and adipocytic cells (synovial MSCs [4]; after 2 weeks of culture in the presence of Activin A, vs control, FIG. 6B): no significant changes | phosphorylation of Erk1/2 (p44/42 MAPK (Erk1/2); [5]): not detected | intracellular Erk phosphorylation (p44/42 MAPK (Erk1/2); [6]): no enhancement
